Measurements from ChEMBL document CHEMBL1123842, “Structural modification study of mitoxantrone (DHAQ). Chloro-substituted mono- and bis[(aminoalkyl)amino]anthraquinones” (1987).

How the values were obtained:
[1] = test system: P388; assay: In vivo antineoplastic activity was determined in BDF1 mice implanted with P388 leukemia and activity is expressed as T/C at 60 mg/kg ip dose (Q1dx5 treatment); details: route intraperitoneal
[2] = test system: L1210; assay: In vitro cytotoxicity against L1210 leukemia cells was determined; assay type: functional; details: Mus musculus
[3] = test system: P388; assay: In vivo antineoplastic activity was determined in BDF1 mice implanted with P388 leukemia and activity is expressed as T/C at 30 mg/kg ip dose (Q1dx5 treatment); details: route intraperitoneal
[4] = test system: Colon adenocarcinoma cell line; assay: In vitro cytotoxicity against Human colon adenocarcinoma cells was determined; assay type: functional
[5] = test system: P388; assay: In vivo antineoplastic activity was determined in BDF1 mice implanted with P388 leukemia and activity is expressed as T/C at 120 mg/kg ip dose (Q1dx5 treatment); details: route intraperitoneal
[6] = test system: P388; assay: In vivo antineoplastic activity was determined in BDF1 mice implanted with P388 leukemia and activity is expressed as T/C at 200 mg/kg ip dose (Q4dx2 treatment); assay type: functional, Mus musculus; details: route intraperitoneal
[7] = test system: P388; assay: In vivo antineoplastic activity was determined in BDF1 mice implanted with P388 leukemia and activity is expressed as T/C at 100 mg/kg ip dose (Q4dx2 treatment); assay type: functional, Mus musculus; details: route intraperitoneal
[8] = test system: P388; assay: In vivo antineoplastic activity was determined in BDF1 mice implanted with P388 leukemia and activity is expressed as T/C at 400 mg/kg ip dose (Q4dx2 treatment); assay type: functional, Mus musculus; details: route intraperitoneal
[9] = test system: P388; assay: In vivo antineoplastic activity was determined in BDF1 mice implanted with P388 leukemia and activity is expressed as T/C at 20 mg/kg ip dose (Q4dx2 treatment); assay type: functional, Mus musculus; details: route intraperitoneal
[10] = test system: P388; assay: In vivo antineoplastic activity was determined in BDF1 mice implanted with P388 leukemia and activity is expressed as T/C at 160 mg/kg ip dose (Q4dx2 treatment); assay type: functional, Mus musculus; details: route intraperitoneal
[11] = test system: P388; assay: In vivo antineoplastic activity was determined in BDF1 mice implanted with P388 leukemia and activity is expressed as T/C at 80 mg/kg ip dose (Q4dx2 treatment); assay type: functional, Mus musculus; details: route intraperitoneal
[12] = test system: P388; assay: In vivo antineoplastic activity was determined in BDF1 mice implanted with P388 leukemia and activity is expressed as T/C at 40 mg/kg ip dose (Q4dx2 treatment); assay type: functional, Mus musculus; details: route intraperitoneal
[13] = test system: P388; assay: In vivo antineoplastic activity was determined in BDF1 mice implanted with P388 leukemia and activity is expressed as T/C at 10 mg/kg ip dose (Q4dx2 treatment); assay type: functional, Mus musculus; details: route intraperitoneal
[14] = test system: P388; assay: In vivo antineoplastic activity was determined in BDF1 mice implanted with P388 leukemia and activity is expressed as T/C at 160 mg/kg ip dose (Q1dx9 treatment); details: route intraperitoneal
[15] = test system: P388; assay: Antineoplastic activity was determined in BDF1 mice in vivo implanted with P388 leukemia and t/c was determined at 40 mg/kg ip dose (Q4dx9 treatment); assay type: functional, Mus musculus; details: route intraperitoneal
[16] = test system: P388; assay: In vivo antineoplastic activity was determined in BDF1 mice implanted with P388 leukemia and activity is expressed as T/C at 80 mg/kg ip dose (Q1dx9 treatment); details: route intraperitoneal
[17] = test system: B16; assay: In vivo antineoplastic activity was determined in BDF1 mice implanted with B16 melanoma and activity expressed as T/C at 12.5 mg/kg ip dose (Q1Dx9 treatment); assay type: functional, Mus musculus; details: route intraperitoneal
[18] = test system: B16; assay: In vivo antineoplastic activity was determined in BDF1 mice implanted with B16 melanoma and activity expressed as T/C at 160 mg/kg ip dose (Q1Dx9 treatment); assay type: functional, Mus musculus; details: route intraperitoneal
[19] = test system: P388; assay: In vivo antineoplastic activity was determined in BDF1 mice implanted with P388 leukemia and activity is expressed as T/C at 25 mg/kg ip dose (Q1dx5 treatment); details: route intraperitoneal
[20] = test system: B16; assay: In vivo antineoplastic activity was determined in BDF1 mice implanted with B16 melanoma and activity expressed as T/C at 6.25 mg/kg ip dose (Q1Dx9 treatment); assay type: functional, Mus musculus; details: route intraperitoneal
[21] = test system: P388; assay: In vivo antineoplastic activity was determined in BDF1 mice implanted with P388 leukemia and activity is expressed as T/C at 100 mg/kg ip dose (Q1dx5 treatment); details: route intraperitoneal
[22] = test system: B16; assay: In vivo antineoplastic activity was determined in BDF1 mice implanted with B16 melanoma and activity expressed as T/C at 50 mg/kg ip dose (Q1Dx9 treatment); assay type: functional, Mus musculus; details: route intraperitoneal
[23] = test system: B16; assay: In vivo antineoplastic activity was determined in BDF1 mice implanted with B16 melanoma and activity expressed as T/C at 100 mg/kg ip dose (Q1Dx9 treatment); assay type: functional, Mus musculus; details: route intraperitoneal
[24] = test system: B16; assay: In vivo antineoplastic activity was determined in BDF1 mice implanted with B16 melanoma and activity expressed as T/C at 80 mg/kg ip dose (Q1Dx9 treatment); assay type: functional, Mus musculus; details: route intraperitoneal
[25] = test system: P388; assay: In vivo antineoplastic activity was determined in BDF1 mice implanted with P388 leukemia and activity is expressed as T/C at 12.5 mg/kg ip dose (Q4dx5 treatment); assay type: functional, Mus musculus; details: route intraperitoneal
[26] = test system: B16; assay: In vivo antineoplastic activity was determined in BDF1 mice implanted with B16 melanoma and activity expressed as T/C at 20 mg/kg ip dose (Q1Dx9 treatment); assay type: functional, Mus musculus; details: route intraperitoneal
[27] = test system: B16; assay: In vivo antineoplastic activity was determined in BDF1 mice implanted with B16 melanoma and activity expressed as T/C at 40 mg/kg ip dose (Q1Dx9 treatment); assay type: functional, Mus musculus; details: route intraperitoneal
[28] = test system: P388; assay: In vivo antineoplastic activity was determined in BDF1 mice implanted with P388 leukemia and activity is expressed as T/C at 6.25 mg/kg ip dose (Q4dx5 treatment); assay type: functional, Mus musculus; details: route intraperitoneal
[29] = test system: B16; assay: In vivo antineoplastic activity was determined in BDF1 mice implanted with B16 melanoma and activity expressed as T/C at 25 mg/kg ip dose (Q1Dx9 treatment); assay type: functional, Mus musculus; details: route intraperitoneal
[30] = test system: P388; assay: In vivo antineoplastic activity was determined in BDF1 mice implanted with P388 leukemia and activity is expressed as T/C at 50 mg/kg ip dose (Q1dx5 treatment); details: route intraperitoneal
[31] = test system: P388; assay: In vivo antineoplastic activity was determined in BDF1 mice implanted with P388 leukemia and activity is expressed as T/C at 1 mg/kg; assay type: functional, Mus musculus
[32] = test system: P388; assay: In vivo antineoplastic activity was determined in BDF1 mice implanted with P388 leukemia and activity is expressed as T/C at 0.12 mg/kg; assay type: functional, Mus musculus
[33] = test system: P388; assay: In vivo antineoplastic activity was determined in BDF1 mice implanted with P388 leukemia and activity is expressed as T/C at 2 mg/kg; assay type: functional, Mus musculus
[34] = test system: P388; assay: In vivo antineoplastic activity was determined in BDF1 mice implanted with P388 leukemia and activity is expressed as T/C at 0.25 mg/kg; assay type: functional, Mus musculus
[35] = test system: P388; assay: In vivo antineoplastic activity was determined in BDF1 mice implanted with P388 leukemia and activity is expressed as T/C at 0.5 mg/kg; assay type: functional, Mus musculus
[36] = test system: P388; assay: In vivo antineoplastic activity was determined in BDF1 mice implanted with P388 leukemia and activity is expressed as T/C at 0.06 mg/kg; assay type: functional, Mus musculus

Which results are given for CN(C)CCNc1ccc(O)c2c1C(=O)c1c(Cl)ccc(Cl)c1C2=O?
T/C [1]: 150; CC50 [2]: 0.0869 µM; T/C [3]: 136; CC50 [4]: 0.522 µM; T/C [5]: 176

For CN(C)CCNc1ccc(Cl)c2c1C(=O)c1c(Cl)ccc(NCCN(C)C)c1C2=O, which T/C [6] is on record?
Its T/C is 128.

What about the CC50 [2] of the same compound?
Its CC50 is 0.385 µM.

And the T/C [7]?
Its T/C is 115.

What about the CC50 [4] of the same compound?
Its CC50 is 0.229 µM.

What about the T/C [8] of the same compound?
The T/C was 123.

Which results are given for O=C1c2c(O)ccc(O)c2C(=O)c2c(NCCNCCO)ccc(Cl)c21?
T/C [9]: 125; CC50 [2]: 0.398 µM; T/C [10]: 184; T/C [11]: 154; T/C [12]: 130; T/C [13]: 113

O=C1c2cccc(Cl)c2C(=O)c2c(NCCNCCO)cccc21 was tested. Which T/C [14] did it give?
The T/C was 120.

What about the T/C [15] of the same compound?
The T/C was 116.

What about the T/C [16] of the same compound?
Its T/C is 124.

What does the source list for O=C1c2c(O)ccc(NCCNCCO)c2C(=O)c2c(Cl)ccc(Cl)c21?
T/C [17]: 172; T/C [18]: 326; T/C [19]: 203; T/C [20]: 166; T/C [21]: 219; T/C [22]: 252; T/C [23]: 270; T/C [24]: 271; T/C [25]: 146; T/C [26]: 224; CC50 [2]: 0.0866 µM; T/C [27]: 231; T/C [28]: 154; T/C [29]: 199; T/C [30]: 180

With CN(C)CCNc1ccc(Cl)c2c1C(=O)c1c(Cl)ccc(O)c1C2=O as the compound, how does the CC50 [2] read?
Its CC50 is 1.13 µM.

And the T/C [11]?
Its T/C is 117.

What about the T/C [12] of the same compound?
The T/C was 103.

For O=C1c2c(O)ccc(O)c2C(=O)c2c(NCCNCCO)ccc(NCCNCCO)c21 [MITOXANTRONE], which T/C [31] is on record?
The T/C was 277.

What about the T/C [32] of the same compound?
Its T/C is 200.

And the T/C [33]?
Its T/C is 280.

What about the T/C [34] of the same compound?
Its T/C is 280.

What about the T/C [35] of the same compound?
Its T/C is 299.

And the T/C [36]?
The T/C was 208.
